Patent publication US20240382465A1, “AROMATIC ACETYLENE DERIVATIVE, AND PREPARATION METHOD THEREFOR AND USE THEREOF” (priority 2021, published 2024)
≈ marks a conversion by molar mass, not a printed value. Like-named read-outs stand apart in the source and are kept apart here.

What was measured:
[1] = target: recombinant Pseudomonas aeruginosa LpxC (Pseudomonas aeruginosa (strain ATCC 15692 / DSM 22644 / CIP 104116 / JCM 14847 / LMG 12228 / 1C / PRS 101 / PAO1), UniProt P47205); assay: Inhibition of LpxC enzymatic activity (fluorescamine assay); type: biochemical
Experimental: The degree of inhibition of the enzymatic activity of recombinant Pseudomonas aeruginosa LpxC by the compounds of the present disclosure under in vitro conditions was determined using the following method.
The experimental procedure is briefly described as follows: The test compound was first dissolved in DMSO to prepare a 10 mM stock solution. The reaction was carried out in a 96-well microplate. First, 20 μL of recombinant Pseudomonas aeruginosa LpxC (purchased from Signalway Antibody, product number AP74647-2) was added to each well, with a final concentration of 5 nM. 5 μL of the compound to be tested was then added, and the compound was diluted 4 times to 8 concentration points with a concentration range of 0.61-10,000 nM. 5 μL of LpxC substrate UDP-3-O—(R-3-hydroxydecanoyl)-GlcNAc (purchased from Biosynth Carbosynth, product number: mu75071) was added, with a final concentration of the substrate of 10 μM. The plate was incubated at 25° C. for 120 minutes. Then 20 μL of 2.0 mg/mL fluorescamine (purchased from sigmaaldrich, product number: F9015, solvent: 1:1 dimethylformamide/acetonitrile) was added to the reaction system, and mixed well for 10 minutes of reaction. Finally, 50 μL of 200 mM sodium phosphate buffer (pH 8.0) was added to terminate the reaction. Reading was carried out using a microplate reader (BMG), and the excitation and emission wavelengths were 390 and 495 nm respectively. By comparing with the fluorescence intensity ratio of the control group ([…]), the percentage inhibition rate of the compound at each concentration was calculated.

K. pneumoniae ATCC13883 = assay: Antibacterial activity, MIC by broth microdilution (CLSI); type: cell-based; settings: Klebsiella pneumoniae; K. pneumoniae ATCC13883, 35° C., 18 to 24 hours; read-out: MIC(K. Pneumoniae)
Experimental: (§1) The in vitro minimum inhibitory concentration (MIC) was determined in accordance with the CLSI guidelines, and was measured using the broth microdilution method.
(§2) The experimental process is briefly described as follows: The test compound was dissolved in DMSO to prepare a […] stock solution, which was then prepared into 11 twice-diluted 100× high-concentration working solutions (the final concentration of the system was 64 μg/mL-0.06 μg/mL) using DMSO. The strains (K. pneumoniae ATCC13883 and E. coli ATCC 25922) frozen in −80° C. glycerol were inoculated into solid agar medium, placed in an incubator at 35° C. for 18-24 hours of incubation. After the preparation of strains was completed, an appropriate amount of solid plate culture was collected, resuspended in physiological saline, and mixed well. The bacterial suspension was adjusted to a suitable turbidity using a turbidity meter, containing approximately 1×10^8 cfu/mL bacteria. Then the bacterial suspension with the adjusted turbidity was diluted to a bacterial concentration of 5×10^5 cfu/ml using the culture medium for measurement, to complete the preparation of the inoculum solution. 198 μL of the inoculum solution was inoculated into a 96-well plate, and then added with 2 μL of a 100× high-concentration working solution of the compound. Then the 96-well plate was placed at 35° C. for 18 to 24 hours of incubation.

E. coli ATCC 25922 = assay: as above; type: cell-based; settings: Escherichia coli, ATCC25922; E. coli ATCC 25922, 35° C., 18 to 24 hours; read-out: MIC(E. coli)
Experimental: as §1, §2

[2] = recombinant P. aeruginosa LpxC 5 nM, substrate 10 μM, 25° C., 120 minutes, read-out: IC50

Row | Structure (SMILES) | IC50 [1, 2] | MIC (K. pneumoniae ATCC13883) | MIC (E. coli ATCC 25922) | IC50 [1]
1 | C[C@H](O)c1nccn1Cc1cc(-c2ccc(C#Cc3ccc(CNCCO)nc3)cc2)on1 [Example 60] | 26.4 nM | 4 µg/mL (≈ 9.02 µM) | 2 µg/mL (≈ 4.51 µM) | –
2 | C[C@H](O)c1nccn1Cc1cc(-c2ccc(C#Cc3ccc(CNC4CCS(=O)(=O)C4)cc3)cc2)on1 (stereo partly drawn) [Example 31] | – | 4 µg/mL (≈ 7.74 µM) | 2 µg/mL (≈ 3.87 µM) | 6.06 nM
3 | C[C@H](O)c1nccn1Cc1cc(-c2ccc(C#Cc3ccc(C(=O)O)cc3)cc2)on1 [Example 24, (S)-4-((4-(3-((2-(1-hydroxyethyl)-1H-imidazol-1-yl)methyl)isoxazol-5-yl)phenyl)ethynyl)benzoic acid] | 22.2 nM | 8 µg/mL (≈ 19.4 µM) | 4 µg/mL (≈ 9.68 µM) | –
4 | C[C@H](O)c1nccn1Cc1cc(-c2ccc(C#Cc3ccc(CN4CCS(=O)(=O)CC4)cc3)cc2)on1 [Example 50, (S)-4-(4-((4-(3-((2-(1-hydroxyethyl)-1H-imidazol-1-yl)methyl)isoxazol-5-yl)phenyl)ethynyl)benzyl)thiomorpholine 1,1-dioxide] | 22.2 nM | 4 µg/mL (≈ 7.74 µM) | 2 µg/mL (≈ 3.87 µM) | –
5 | C[C@H](O)c1nccn1Cc1cc(-c2ccc(C#Cc3ccc(C(=O)NCCN(C)C)cc3)cc2)on1 [Example 71, (S)-N-(2-(dimethylamino)ethyl)-4-((4-(3-((2-(1-hydroxyethyl)-1H-imidazol-1-yl)methyl)isoxazol-5-yl)phenyl)ethynyl) benzamide] | 24.2 nM | – | 8 µg/mL (≈ 16.5 µM) | –
6 | C[C@H](O)c1nccn1Cc1cc(-c2ccc(C#Cc3ccc(CCC(=O)O)nc3)cc2)on1 [Example 58, (S)-3-(5-((4-(3-((2-(1-hydroxyethyl)-1H-imidazol-1-yl)methyl)isoxazol-5-yl)phenyl)ethynyl)pyridin-2-yl)propanoic acid] | 22 nM | 8 µg/mL (≈ 18.1 µM) | 4 µg/mL (≈ 9.04 µM) | –
7 | C[C@H](O)c1nccn1Cc1cc(-c2ccc(C#Cc3ccc(CN4CCNC(=O)C4)nc3)cc2)on1 [Example 114, (S)-4-((5-((4-(3-((2-(1-hydroxyethyl)-1H-imidazol-1-yl)methyl)isoxazol-5-yl)phenyl)ethynyl)pyridin-2-yl)methyl)piperazin-2-one] | 10.5 nM | 8 µg/mL (≈ 16.6 µM) | 2 µg/mL (≈ 4.14 µM) | –
8 | C[C@H](O)c1nccn1Cc1cc(-c2ccc(C#Cc3ccc(CN4CCOC(C(=O)O)C4)cc3)cc2)on1 (stereo partly drawn) [Example 47, 4-(4-((4-(3-((2-((S)-1-hydroxyethyl)-1H-imidazol-1-yl)methyl)isoxazol-5-yl)phenyl)ethynyl)benzyl)morpholin-2-carboxylic acid] | – | – | 8 µg/mL (≈ 15.6 µM) | 11.1 nM
9 | C[C@H](O)c1nccn1Cc1cc(-c2ccc(C#Cc3ccc(OCC4CCN(C)CC4)cc3)cc2)on1 [Example 76, (S)-1-(1-((5-(4-((4-((1-methylpiperidin-4-yl)methoxy)phenyl)ethynyl)phenyl)isoxazol-3-yl)methyl)-1H-imidazol-2-yl) ethan-1-ol] | 12.9 nM | – | 8 µg/mL (≈ 16.1 µM) | –
10 | C[C@H](O)c1nccn1Cc1cc(-c2ccc(C#Cc3cccc(C(=O)O)c3)cc2)on1 [Example 107, (S)-3-((4-(3-((2-(1-hydroxy-ethyl)-1H-imidazol-1-yl)methyl)isoxazol-5-yl)phenyl)ethynyl) benzoic acid] | 16.3 nM | – | 8 µg/mL (≈ 19.4 µM) | –
11 | C[C@H](O)c1nccn1Cc1cc(-c2ccc(C#Cc3ccc(CN4CCNCC4)cc3)cc2)on1 [Example 96, (S)-1-(1-((5-(4-((4-(piperazin-1-ylmethyl)phenyl)ethynyl)phenyl)isoxazol-3-yl)methyl)-1H-imidazol-2-yl)ethan-1-ol] | 15.9 nM | – | 4 µg/mL (≈ 8.55 µM) | –
12 | C[C@H](O)c1nccn1Cc1cc(-c2ccc(C#Cc3ccc(CN4CCOCC4C(=O)O)cc3)cc2)on1 (stereo partly drawn) [Example 20, 4-(4-((4-(3-((2-((S)-1-hydroxyethyl)-1H-imidazol-1-yl)methyl)isoxazol-5-yl)phenyl)ethynyl)benzyl)morpholin-3-carboxylic acid] | 9.86 nM | – | 4 µg/mL (≈ 7.8 µM) | –
13 | C[C@H](O)c1nccn1Cc1cc(-c2ccc(C#Cc3ccc(N4CCOCC4)cc3)cc2)on1 [Example 5] | 72.3 nM | – | 1 µg/mL (≈ 2.2 µM) | –
14 | C[C@H](O)c1nccn1Cc1cc(-c2ccc(C#Cc3ccc(CN4CCOC(CC(=O)O)C4)cc3)cc2)on1 (stereo partly drawn) [Example 93, 2-(4-(4-((4-(3-((2-((S)-1-hy-droxyethyl)-1H-imidazol-1-yl)methyl)isoxazol-5-yl)phenyl)ethynyl)benzyl)morpholin-2-yl) acetic acid] | 16.2 nM | – | 8 µg/mL (≈ 15.2 µM) | –
15 | C[C@H](O)c1nccn1Cc1coc(-c2ccc(C#Cc3ccc(CN4CCC(O)CC4)cc3)cc2)n1 [Example 22, (S)-1-(4-((4-(4-((2-(1-hydroxyethyl)-1H-imidazol-1-yl)methyl)oxazol-2-yl)phenyl)ethynyl)benzyl)piperidin-4-ol] | 98.9 nM | – | 4 µg/mL (≈ 8.29 µM) | –
16 | C[C@H](O)c1nccn1Cc1cc(-c2ccc(C#Cc3ccc(CN4CC(C(=O)O)C4)cc3)cc2)on1 [Example 95, (S)-1-(4-((4-(3-((2-(1-hydroxyethyl)-1H-imidazol-1-yl)methyl)isoxazol-5-yl)phenyl)ethynyl)benzyl)azetidin-3-carboxylic acid] | 19.9 nM | – | 8 µg/mL (≈ 16.6 µM) | –
17 | C[C@H](O)c1nccn1Cc1cc(-c2ccc(C#Cc3cccc(OCC(=O)O)c3)cc2)on1 [Example 110, (S)-2-(3-((4-(3-((2-(1-hydroxyethyl)-1H-imidazol-1-yl)methyl)isoxazol-5-yl)phenyl)ethynyl)phenoxy)acetic acid] | 11.2 nM | – | 8 µg/mL (≈ 18 µM) | –
18 | C[C@H](O)c1nccn1Cc1cc(-c2ccc(C#Cc3ccc(C(=O)NCC(C)(C)O)cc3)cc2)on1 [Example 72, (S)-N-(2-hydroxy-2-methyl-propyl)-4-((4-(3-((2-(1-hydroxyethyl)-1H-imidazol-1-yl)methyl)isoxazol-5-yl)phenyl)ethynyl) benzamide] | 26.6 nM | – | 8 µg/mL (≈ 16.5 µM) | –
19 | C[C@H](O)c1nccn1Cc1cc(-c2ccc(C#Cc3ccc(C(=O)NCCC(=O)O)cc3)cc2)on1 [Example 73, (S)-3-(4-((4-(3-((2-(1-hydroxyethyl)-1H-imidazol-1-yl)methyl)isoxazol-5-yl)phenyl)ethynyl)benzamido)propanoic acid] | 33.1 nM | – | 8 µg/mL (≈ 16.5 µM) | –
20 | CCN(CC)CCNC(=O)c1ccc(C#Cc2ccc(-c3cc(Cn4ccnc4[C@H](C)O)no3)cc2)cc1 [Example 70, (S)-N-(2-(diethylamino)ethyl)-4-((4-(3-((2-(1-hydroxyethyl)-1H-imidazol-1-yl)methyl)isoxazol-5-yl)phenyl)ethynyl) benzamide] | 12.9 nM | – | 8 µg/mL (≈ 15.6 µM) | –
21 | C[C@H](O)c1nccn1Cc1cc(-c2ccc(C#Cc3cccc(CCC(=O)O)c3)cc2)on1 [Example 109, (S)-3-(3-((4-(3-((2-(1-hydroxyethyl)-1H-imidazol-1-yl)methyl)isoxazol-5-yl)phenyl)ethynyl)phenyl)propanoic acid] | 23.4 nM | – | 4 µg/mL (≈ 9.06 µM) | –
22 | C[C@H](O)c1nccn1Cc1cc(-c2ccc(C#Cc3ccc(CNCC(=O)O)cc3)cc2)on1 [Example 99, (S)-(4-((4-(3-((2-(1-hydroxy-ethyl)-1H-imidazol-1-yl)methyl)isoxazol-5-yl)phenyl)ethynyl)benzyl)glycinate] | – | – | 4 µg/mL (≈ 8.76 µM) | 19.4 nM
23 | C[C@H](O)c1nccn1Cc1cc(-c2ccc(C#Cc3ccc(C(=O)N4CCC(C(=O)O)CC4)cc3)cc2)on1 [Example 69, (S)-1-(4-((4-(3-((2-(1-hydroxyethyl)-1H-imidazol-1-yl)methyl)isoxazol-5-yl)phenyl)ethynyl)benzoyl)piperidin-4-carboxylic acid] | 10.4 nM | – | 8 µg/mL (≈ 15.3 µM) | –
24 | C[C@H](O)c1nccn1Cc1cc(-c2ccc(C#Cc3ccc(C(=O)N4CCC(O)CC4)cc3)cc2)on1 [Example 67, (S)-(4-((4-(3-((2-(1-hydroxy-ethyl)-1H-imidazol-1-yl)methyl)isoxazol-5-yl)phenyl)ethynyl)phenyl)(4-hydroxypiperidin-1-yl)methanone] | 10.4 nM | – | 2 µg/mL (≈ 4.03 µM) | –
